Source: the kinase profiling compilation of Christmann-Franck et al. (2016)

Columns and labels:
Assay in all cases: radiometric filter-binding kinase assay, Kinase HotSpot
Details in all cases: compound 0.5 µM; ATP 10 µM
BRSK1 (human) = BRSK1 (human) (UniProt Q8TDC3)
STK33 (human) = STK33 (human) (UniProt Q9BYT3)
JAK3 JH1 JH2 (human) = JAK3 JH1 JH2 (human) (UniProt P52333)
CSNK1E (human) = CSNK1E (human) (UniProt P49674)
CSNK1G3 (human) = CSNK1G3 (human) (UniProt Q9Y6M4)
MET (human) = MET (human) (UniProt P08581)
PIM2 (human) = PIM2 (human) (UniProt Q9P1W9)
PIM2 (human), sequence (Q9P1W9 whole entry, looked up): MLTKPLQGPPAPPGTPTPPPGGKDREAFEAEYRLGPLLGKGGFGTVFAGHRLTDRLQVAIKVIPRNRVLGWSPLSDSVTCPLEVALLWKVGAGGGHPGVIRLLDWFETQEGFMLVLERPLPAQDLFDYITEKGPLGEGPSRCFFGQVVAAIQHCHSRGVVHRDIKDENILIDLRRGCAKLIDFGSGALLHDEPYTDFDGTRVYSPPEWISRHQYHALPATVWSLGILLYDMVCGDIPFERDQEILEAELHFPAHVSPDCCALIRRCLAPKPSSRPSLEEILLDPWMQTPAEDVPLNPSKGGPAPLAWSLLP

MERTK (human) = MERTK (human) (UniProt Q12866)
NUAK2 (human) = NUAK2 (human) (UniProt Q9H093)
MYLK (human) = MYLK (human) (UniProt Q15746)
HIPK2 (human) = HIPK2 (human) (UniProt Q9H2X6)
STK3 (human) = STK3 (human) (UniProt Q13188)
STK3 (human), sequence (Q13188 whole entry, looked up): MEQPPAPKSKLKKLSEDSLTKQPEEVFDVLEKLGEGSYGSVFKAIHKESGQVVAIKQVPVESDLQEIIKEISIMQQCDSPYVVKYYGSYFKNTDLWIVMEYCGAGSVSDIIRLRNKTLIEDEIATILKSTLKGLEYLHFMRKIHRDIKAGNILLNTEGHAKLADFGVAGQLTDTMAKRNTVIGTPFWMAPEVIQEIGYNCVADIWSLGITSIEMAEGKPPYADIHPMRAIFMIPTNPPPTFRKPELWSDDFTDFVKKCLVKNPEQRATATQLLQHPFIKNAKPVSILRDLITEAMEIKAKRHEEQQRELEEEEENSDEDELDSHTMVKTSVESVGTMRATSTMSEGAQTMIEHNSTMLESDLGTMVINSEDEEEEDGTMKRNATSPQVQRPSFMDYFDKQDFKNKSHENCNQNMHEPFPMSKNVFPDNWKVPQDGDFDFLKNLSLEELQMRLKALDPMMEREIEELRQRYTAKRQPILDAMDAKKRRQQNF

ADRBK2 (human) = ADRBK2 (human) (UniProt P35626)
NEK3 (human) = NEK3 (human) (UniProt P51956)
PRKCA (human) = PRKCA (human) (UniProt P17252)
CDC42BPB (human) = CDC42BPB (human) (UniProt Q9Y5S2)
KDR (human) = KDR (human) (UniProt P35968)
CSNK1A1 (human) = CSNK1A1 (human) (UniProt P48729)
ABL2 (human) = ABL2 (human) (UniProt P42684)
NLK (human) = NLK (human) (UniProt Q9UBE8)
CDK2 CCNA2 (human) = CDK2 CCNA2 (human) (UniProt P24941+P20248)
GRK4 (human) = GRK4 (human) (UniProt P32298)
MAPK9 (human) = MAPK9 (human) (UniProt P45984)
MAPK9 (human), sequence (P45984 whole entry, looked up): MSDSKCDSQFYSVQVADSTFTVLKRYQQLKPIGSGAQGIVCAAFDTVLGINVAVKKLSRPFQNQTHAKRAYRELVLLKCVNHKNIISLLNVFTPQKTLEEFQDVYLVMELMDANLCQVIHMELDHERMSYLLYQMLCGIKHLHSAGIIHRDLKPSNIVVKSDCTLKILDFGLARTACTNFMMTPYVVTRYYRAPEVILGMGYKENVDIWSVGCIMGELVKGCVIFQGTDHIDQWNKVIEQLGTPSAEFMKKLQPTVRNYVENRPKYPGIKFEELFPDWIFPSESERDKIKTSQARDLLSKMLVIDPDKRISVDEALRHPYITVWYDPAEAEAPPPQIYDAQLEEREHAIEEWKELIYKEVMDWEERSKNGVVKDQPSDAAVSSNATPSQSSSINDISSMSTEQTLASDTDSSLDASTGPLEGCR

NTRK1 (human) = NTRK1 (human) (UniProt P04629)
EPHB3 (human) = EPHB3 (human) (UniProt P54753)
TAOK2 (human) = TAOK2 (human) (UniProt Q9UL54)
MARK2 (human) = MARK2 (human) (UniProt Q7KZI7)
MAPKAPK5 (human) = MAPKAPK5 (human) (UniProt Q8IW41)
CDK9 CCNT1 (human) = CDK9 CCNT1 (human) (UniProt P50750+O60563)
GRK6 (human) = GRK6 (human) (UniProt P43250)
FLT1 (human) = FLT1 (human) (UniProt P17948)
FLT1 (human), sequence (P17948 whole entry, looked up): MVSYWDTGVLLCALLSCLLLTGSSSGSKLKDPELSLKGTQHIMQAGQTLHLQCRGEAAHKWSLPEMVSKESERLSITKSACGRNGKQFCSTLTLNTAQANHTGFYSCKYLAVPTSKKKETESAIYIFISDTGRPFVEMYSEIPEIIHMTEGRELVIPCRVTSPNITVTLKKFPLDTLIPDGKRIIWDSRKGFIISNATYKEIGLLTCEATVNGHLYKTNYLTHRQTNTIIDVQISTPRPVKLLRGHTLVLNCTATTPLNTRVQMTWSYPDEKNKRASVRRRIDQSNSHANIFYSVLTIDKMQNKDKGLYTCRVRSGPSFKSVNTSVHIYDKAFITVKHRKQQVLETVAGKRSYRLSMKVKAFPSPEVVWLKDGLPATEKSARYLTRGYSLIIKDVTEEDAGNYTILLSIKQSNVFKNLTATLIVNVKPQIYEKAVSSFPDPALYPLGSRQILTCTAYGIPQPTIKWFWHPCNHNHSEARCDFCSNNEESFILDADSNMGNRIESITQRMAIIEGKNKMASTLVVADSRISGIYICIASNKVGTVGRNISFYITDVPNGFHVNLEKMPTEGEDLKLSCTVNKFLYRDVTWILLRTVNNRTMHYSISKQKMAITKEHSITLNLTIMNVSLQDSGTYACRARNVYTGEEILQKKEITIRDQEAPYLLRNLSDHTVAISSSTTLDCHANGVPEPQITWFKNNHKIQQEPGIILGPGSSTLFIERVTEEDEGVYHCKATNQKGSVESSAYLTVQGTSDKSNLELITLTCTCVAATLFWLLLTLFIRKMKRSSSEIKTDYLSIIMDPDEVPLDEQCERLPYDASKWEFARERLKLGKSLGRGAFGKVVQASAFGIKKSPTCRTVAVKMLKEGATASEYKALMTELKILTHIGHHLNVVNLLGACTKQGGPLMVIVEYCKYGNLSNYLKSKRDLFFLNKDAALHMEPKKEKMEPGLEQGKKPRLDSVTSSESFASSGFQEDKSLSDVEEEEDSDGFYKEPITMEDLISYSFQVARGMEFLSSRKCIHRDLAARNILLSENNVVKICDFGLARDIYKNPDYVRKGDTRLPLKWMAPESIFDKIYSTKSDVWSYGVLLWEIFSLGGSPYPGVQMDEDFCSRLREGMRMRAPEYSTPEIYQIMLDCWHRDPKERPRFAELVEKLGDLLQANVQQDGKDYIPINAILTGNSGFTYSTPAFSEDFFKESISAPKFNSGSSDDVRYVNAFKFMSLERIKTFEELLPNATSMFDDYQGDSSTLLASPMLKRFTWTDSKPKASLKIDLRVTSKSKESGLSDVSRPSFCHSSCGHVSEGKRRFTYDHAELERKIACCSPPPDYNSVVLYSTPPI

AURKA (human) = AURKA (human) (UniProt O14965)
EPHA4 (human) = EPHA4 (human) (UniProt P54764)
STK11 (human) = STK11 (human) (UniProt Q15831)
RIPK2 (human) = RIPK2 (human) (UniProt O43353)
RPS6KA1 KD1 KD2 (human) = RPS6KA1 KD1 KD2 (human) (UniProt Q15418)
RPS6KA1 KD1 KD2 (human), sequence (Q15418 whole entry, looked up): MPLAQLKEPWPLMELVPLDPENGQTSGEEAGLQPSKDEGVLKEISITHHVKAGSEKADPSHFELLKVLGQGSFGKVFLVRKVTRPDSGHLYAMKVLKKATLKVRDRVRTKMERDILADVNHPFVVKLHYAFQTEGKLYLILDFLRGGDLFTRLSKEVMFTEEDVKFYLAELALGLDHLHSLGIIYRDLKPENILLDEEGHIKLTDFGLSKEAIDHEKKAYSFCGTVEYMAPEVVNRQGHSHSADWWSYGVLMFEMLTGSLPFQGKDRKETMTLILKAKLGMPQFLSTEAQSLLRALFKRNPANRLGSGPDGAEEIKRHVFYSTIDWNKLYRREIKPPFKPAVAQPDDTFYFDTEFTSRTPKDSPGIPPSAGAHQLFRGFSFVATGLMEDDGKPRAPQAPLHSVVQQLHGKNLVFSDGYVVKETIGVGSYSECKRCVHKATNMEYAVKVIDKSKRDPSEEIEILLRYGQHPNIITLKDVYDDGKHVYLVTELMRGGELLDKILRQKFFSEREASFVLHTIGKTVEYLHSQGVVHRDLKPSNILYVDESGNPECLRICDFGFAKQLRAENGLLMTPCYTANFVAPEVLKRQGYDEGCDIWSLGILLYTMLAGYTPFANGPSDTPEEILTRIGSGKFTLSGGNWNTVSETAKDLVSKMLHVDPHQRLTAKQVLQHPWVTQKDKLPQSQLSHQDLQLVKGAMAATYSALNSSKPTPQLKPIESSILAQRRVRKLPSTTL

EPHA8 (human) = EPHA8 (human) (UniProt P29322)
TXK (human) = TXK (human) (UniProt P42681)
MAP3K8 (human) = MAP3K8 (human) (UniProt P41279)
NUAK1 (human) = NUAK1 (human) (UniProt O60285)
PHKG2 (human) = PHKG2 (human) (UniProt P15735)
PHKG2 (human), sequence (P15735 whole entry, looked up): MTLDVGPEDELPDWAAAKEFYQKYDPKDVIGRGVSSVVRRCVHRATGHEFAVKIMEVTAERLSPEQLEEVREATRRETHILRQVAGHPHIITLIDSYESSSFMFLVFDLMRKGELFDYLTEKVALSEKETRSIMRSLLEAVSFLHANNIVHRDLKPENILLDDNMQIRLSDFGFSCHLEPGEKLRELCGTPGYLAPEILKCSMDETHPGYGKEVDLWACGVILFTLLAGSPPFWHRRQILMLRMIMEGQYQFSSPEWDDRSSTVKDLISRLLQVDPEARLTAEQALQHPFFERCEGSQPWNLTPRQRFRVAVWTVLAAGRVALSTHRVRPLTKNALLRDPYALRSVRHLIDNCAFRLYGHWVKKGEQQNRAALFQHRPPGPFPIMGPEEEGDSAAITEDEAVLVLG

ACVR1B (human) = ACVR1B (human) (UniProt P36896)

CSNK1G3 (human), sequence (Q9Y6M4 whole entry, looked up): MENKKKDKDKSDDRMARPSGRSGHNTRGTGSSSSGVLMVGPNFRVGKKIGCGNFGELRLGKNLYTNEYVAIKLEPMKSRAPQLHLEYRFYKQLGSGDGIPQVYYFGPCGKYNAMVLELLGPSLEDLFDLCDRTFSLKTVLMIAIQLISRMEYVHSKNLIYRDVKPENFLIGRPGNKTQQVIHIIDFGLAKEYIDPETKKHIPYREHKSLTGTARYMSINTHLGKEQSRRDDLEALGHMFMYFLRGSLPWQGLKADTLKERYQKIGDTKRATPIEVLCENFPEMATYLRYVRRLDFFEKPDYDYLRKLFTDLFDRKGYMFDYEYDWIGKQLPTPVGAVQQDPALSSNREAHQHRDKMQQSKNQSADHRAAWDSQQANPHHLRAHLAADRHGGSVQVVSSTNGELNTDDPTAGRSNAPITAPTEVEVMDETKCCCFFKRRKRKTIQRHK

In the case of `O=C(NC(NC(=S)Nc1ccc(F)c([N+](=O)[O-])c1)C(Cl)(Cl)Cl)C(c1ccccc1)c1ccccc1` (centres undefined), the residual activity (BRSK1 (human)) is reported as 98.3%, the residual activity (STK33 (human)) is reported as 99.6% and the residual activity (JAK3 JH1 JH2 (human)) is reported as 110%. It also gave a residual activity (CSNK1E (human)) of 111%, a residual activity (CSNK1G3 (human)) of 87.7% and a residual activity (MET (human)) of 101%. It also gave a residual activity (PIM2 (human)) of 117%, a residual activity (MERTK (human)) of 96.2% and a residual activity (NUAK2 (human)) of 108%. The residual activity (MYLK (human)) was 99.6%, the residual activity (HIPK2 (human)) was 118% and the residual activity (STK3 (human)) was 107%. For the same compound, the residual activity (ADRBK2 (human)) was 98.3%, the residual activity (NEK3 (human)) was 96.2% and the residual activity (PRKCA (human)) was 73.1%. The residual activity (CDC42BPB (human)) was 97.2%, the residual activity (KDR (human)) was 92.5% and the residual activity (CSNK1A1 (human)) was 94.1%. The residual activity (ABL2 (human)) was 105%, the residual activity (NLK (human)) was 106% and the residual activity (CDK2 CCNA2 (human)) was 102%. It also gave a residual activity (GRK4 (human)) of 101%, a residual activity (MAPK9 (human)) of 88.6% and a residual activity (NTRK1 (human)) of 107%. The residual activity (EPHB3 (human)) was 104%, the residual activity (TAOK2 (human)) was 103% and the residual activity (MARK2 (human)) was 92.3%. The residual activity (MAPKAPK5 (human)) was 102%, the residual activity (CDK9 CCNT1 (human)) was 95% and the residual activity (GRK6 (human)) was 97.5%. For the same compound, the residual activity (FLT1 (human)) was 97.2%, the residual activity (AURKA (human)) was 80.8% and the residual activity (EPHA4 (human)) was 101%. It also gave a residual activity (STK11 (human)) of 94.2%, a residual activity (RIPK2 (human)) of 97.4% and a residual activity (RPS6KA1 KD1 KD2 (human)) of 105%. It also gave a residual activity (EPHA8 (human)) of 104%, a residual activity (TXK (human)) of 108% and a residual activity (MAP3K8 (human)) of 105%. It also gave a residual activity (NUAK1 (human)) of 95.3%, a residual activity (PHKG2 (human)) of 109% and a residual activity (ACVR1B (human)) of 106%.
In the case of `Nc1n[nH]c2nnc(-c3c(-c4ccccc4)nn4ccccc34)cc12`, the residual activity (BRSK1 (human)) is reported as 98.6%, the residual activity (STK33 (human)) is reported as 100% and the residual activity (JAK3 JH1 JH2 (human)) is reported as 105%. The residual activity (CSNK1E (human)) was 80.9%, the residual activity (CSNK1G3 (human)) was 104% and the residual activity (MET (human)) was 95%. It also gave a residual activity (PIM2 (human)) of 91.7%, a residual activity (MERTK (human)) of 76.4% and a residual activity (NUAK2 (human)) of 87.3%. The residual activity (MYLK (human)) was 98.3%, the residual activity (HIPK2 (human)) was 104% and the residual activity (STK3 (human)) was 102%. It also gave a residual activity (ADRBK2 (human)) of 101%, a residual activity (NEK3 (human)) of 82.7% and a residual activity (PRKCA (human)) of 87.2%. The residual activity (CDC42BPB (human)) was 93.4%, the residual activity (KDR (human)) was 101% and the residual activity (CSNK1A1 (human)) was 100%. The residual activity (ABL2 (human)) was 57.5%, the residual activity (NLK (human)) was 102% and the residual activity (CDK2 CCNA2 (human)) was 92.9%. The residual activity (GRK4 (human)) was 103%, the residual activity (MAPK9 (human)) was 48.4% and the residual activity (NTRK1 (human)) was 101%. The residual activity (EPHB3 (human)) was 96.8%, the residual activity (TAOK2 (human)) was 101% and the residual activity (MARK2 (human)) was 104%. For the same compound, the residual activity (MAPKAPK5 (human)) was 97.7%, the residual activity (CDK9 CCNT1 (human)) was 97.3% and the residual activity (GRK6 (human)) was 99.3%. It also gave a residual activity (FLT1 (human)) of 96.7%, a residual activity (AURKA (human)) of 101% and a residual activity (EPHA4 (human)) of 85.9%. The residual activity (STK11 (human)) was 91.8%, the residual activity (RIPK2 (human)) was 87% and the residual activity (RPS6KA1 KD1 KD2 (human)) was 95.1%. It also gave a residual activity (EPHA8 (human)) of 100%, a residual activity (TXK (human)) of 88.8% and a residual activity (MAP3K8 (human)) of 95%. The residual activity (NUAK1 (human)) was 92.5%, the residual activity (PHKG2 (human)) was 82.6% and the residual activity (ACVR1B (human)) was 107%.
